The target of data set [1] is GLP-1R (Homo sapiens (Human), UniProt P43220). Kind of data set: GLP-1R activation: cAMP increase in CHO cells stably expressing GLP-1R. Format: cell-based. The note with it: cAMP increase, 10 point dose response, 30 minutes incubation at 37° C., read-out: EC50. The gist of the method:
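CHO cells stably expressing GLP-1R were incubated 1 h at 37 °C in medium with 1% BSA, then exposed to compound in a 10-point dose response for 30 min at 37 °C. cAMP rise was detected by HTRF (Gs Dynamic kit). EC50 came from a sigmoidal fit of response against log agonist concentration.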

Data set [2] in a line: Microsomal stability (liver microsomal assay, mixed cofactors); predicted hepatic clearance. Format: in vitro ADME. The conditions noted are these: liver microsomes 1.0 mg protein/mL (+UDPGA +NADPH), 1 μM analyte, 37° C.; scaled with human liver weight and hepatic blood flow 1.3 L/hr/kg. The gist of the method:
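Compound at 1 μM with human or rat pooled liver microsomes, alamethicin-treated, pH 7.4 phosphate, NADPH-regenerating plus UDPGA cofactors, 37° C, sampled 0–70 min. Parent/internal standard ratio by RapidFire QToF MS; half-life from initial log-linear decay, scaled to intrinsic and predicted hepatic clearance and hepatic extraction.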

Chain of GLP-1R (P43220 24-463): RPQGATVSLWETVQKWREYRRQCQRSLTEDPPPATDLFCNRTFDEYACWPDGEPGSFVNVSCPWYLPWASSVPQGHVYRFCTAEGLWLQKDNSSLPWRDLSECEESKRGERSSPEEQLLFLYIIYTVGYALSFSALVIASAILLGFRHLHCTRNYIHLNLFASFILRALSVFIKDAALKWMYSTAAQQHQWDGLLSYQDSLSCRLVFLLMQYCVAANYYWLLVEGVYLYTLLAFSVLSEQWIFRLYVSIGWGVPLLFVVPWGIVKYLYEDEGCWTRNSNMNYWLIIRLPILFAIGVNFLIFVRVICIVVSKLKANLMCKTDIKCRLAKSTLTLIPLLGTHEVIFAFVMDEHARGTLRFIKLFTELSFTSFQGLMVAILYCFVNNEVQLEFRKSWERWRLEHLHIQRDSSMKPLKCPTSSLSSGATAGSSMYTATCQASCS

On to `CC1(c2ccc(Cl)cn2)Oc2cccc(-c3cc(F)c(Cc4nc5ccc(C(=O)O)cc5n4C[C@@H]4CCO4)cc3F)c2O1` (stereo partly drawn) [Example 29, 2-(4-(2-(5-chloropyridin-2-yl)-2-methylbenzo[d][1, 3]dioxol-4-yl)-2,5-difluorobenzyl)-1-(((S)-oxetan-2-yl)methyl)-1H-benzo[d]imidazole-6-carboxylic acid], for which the EC50 in data set [1] turned out to be 0.076 nM. In addition, in data set [2], the “Predicted Hepatic Clearance (Pred. Cl.)” value was 4.67 mL/min/kg.
Regarding `COCCn1c(Cc2cc(F)c(-c3cccc4c3OC(c3ccc(C#N)cc3F)O4)cc2F)nc2ccc(C(=O)O)cc21` (single isomer, unassigned) [Example 40, 2-(4-(2-(4-cyano-2-fluorophenyl)benzo [d][1,3]dioxol-4-yl)-2,5-difluorobenzyl)-1-(2-methoxyethyl)-1H-benzo[d]imidazole-6-carboxylic acid], the EC50 in data set [1] was 1230 nM. Further, in data set [2], the “Predicted Hepatic Clearance (Pred. Cl.)” value was 5 mL/min/kg.
For `COCCn1c(Cc2ccc(-c3cccc4c3OC(C)(c3ccc(Cl)cc3F)O4)[nH]c2=O)nc2ccc(C(=O)O)cc21` (stereo not drawn) [Example 86, 2-((6-(2-(4-chloro-2-fluorophenyl)-2-methylbenzo[d][1, 3]dioxol-4-yl)-2-oxo-1,2-dihydropyridin-3-yl)methyl)-1-(2-methoxyethyl)-1H-benzo[d]imidazole-6-carboxylic acid] the same measures were 13 nM and 2 mL/min/kg.
On to `COCCn1c(Cc2c(F)cc(-c3cccc4c3OC(C)(c3ccc(Cl)cn3)O4)cc2F)nc2ccc(C(=O)O)cc21` (stereo not drawn) [Example 64, 2-(4-(2-(5-chloropyridin-2-yl)-2-methylbenzo[d][1, 3]dioxol-4-yl)-2,6-difluorobenzyl)-1-(2-methoxyethyl)-1H-benzo[d]imidazole-6-carboxylic acid], for which the EC50 in data set [1] is 111 nM. In addition, the “Predicted Hepatic Clearance (Pred. Cl.)” value in data set [2] was 3.67 mL/min/kg.
As for `CC1(c2ccc(C#N)cc2F)Oc2cccc(-c3cc(F)c(Cc4nc5ccc(C(=O)O)cc5n4C[C@@H]4CCO4)cc3F)c2O1` (stereo partly drawn) [Example 25, 2-(4-(2-(4-cyano-2-fluorophenyl)-2-methylbenzo[d][1, 3]dioxol-4-yl)-2,5-difluorobenzyl)-1-(((S)-oxetan-2-yl)methyl)-1H-benzo[d]imidazole-6-carboxylic acid], in data set [1], the 50% effective concentration (EC50) amounted to 0.3 nM. Also, the “Predicted Hepatic Clearance (Pred. Cl.)” value in data set [2] was 4.33 mL/min/kg.
For `COCCn1c(Cc2cc(F)c(-c3cccc4c3OC(c3ccc(C#N)cc3F)O4)cc2F)nc2ccc(C(=O)O)cc21` (stereo not drawn) [Example 31, 2-(4-(2-(4-cyano-2-fluorophenyl)benzo [d][1,3]dioxol-4-yl)-2,5-difluorobenzyl)-1-(2-methoxyethyl)-1H-benzo[d]imidazole-6-carboxylic acid] the same measures were 89 nM and 3.17 mL/min/kg.
As for `COCCn1c(Cc2c(F)cc(-c3cccc4c3OC(C)(c3ccc(Cl)cc3OC)O4)cc2F)nc2ccc(C(=O)O)cc21` (stereo not drawn) [Example 60, 2-(4-(2-(4-chloro-2-methoxyphenyl)-2-methylbenzo[d][1, 3]dioxol-4-yl)-2,6-difluorobenzyl)-1-(2-methoxyethyl)-1H-benzo[d]imidazole-6-carboxylic acid], in data set [1], the EC50 was found to be 3.8 nM. For the same molecule, the “Predicted Hepatic Clearance (Pred. Cl.)” value in data set [2] is 3.5 mL/min/kg.
On to `CC1(c2ccc(Cl)cn2)Oc2cccc(-c3cc(F)c(Cc4nc5ccc(C(=O)O)cc5n4C[C@@H]4CCO4)c(F)c3)c2O1` (single isomer, unassigned) [Example 49], for which, in data set [1], the EC50 is 0.31 nM. In data set [2], the “Predicted Hepatic Clearance (Pred. Cl.)” value is 3.33 mL/min/kg.
For the molecule `COCCn1c(Cc2cc(F)c(-c3cccc4c3OC(C)(c3ccc(Cl)cc3F)O4)cc2F)nc2ccc(-c3nn[nH]n3)cc21` (stereo not drawn) [Example 84, 2-(4-(2-(4-chloro-2-fluorophenyl)-2-methylbenzo[d][1, 3]dioxol-4-yl)-2,5-difluorobenzyl)-1-(2-methoxyethyl)-6-(2H-tetrazol-5-yl)-1H-benzo[d]imidazole], the EC50 in data set [1] was 49 nM. Also, the “Predicted Hepatic Clearance (Pred. Cl.)” value in data set [2] was 2.83 mL/min/kg.
For `CCC1(c2ccc(Cl)cc2F)Oc2cccc(-c3cc(F)c(Cc4nc5ccc(C(=O)O)cc5n4CCOC)c(F)c3)c2O1` (stereo not drawn) [Example 53, 2-(4-(2-(4-chloro-2-fluorophenyl)-2-ethylbenzo[d][1,3]dioxol-4-yl)-2,6-difluorobenzyl)-1-(2-methoxyethyl)-1H-benzo[d]imidazole-6-carboxylic acid] the same measures were 1290 nM and 13 mL/min/kg.
With `CC1(c2ccc(Cl)cc2F)Oc2cccc(-c3cc(F)c(Cc4nc5ccc(C(=O)O)cc5n4C[C@@H]4CCO4)cc3F)c2O1` (stereo partly drawn) [Example 28, 2-(4-(2-(4-chloro-2-fluorophenyl)-2-methylbenzo[d][1, 3]dioxol-4-yl)-2,5-difluorobenzyl)-1-(((S)-oxetan-2-yl)methyl)-1H-benzo[d]imidazole-6-carboxylic acid], in data set [1], the EC50 came to 0.034 nM. The “Predicted Hepatic Clearance (Pred. Cl.)” value in data set [2] was 3.83 mL/min/kg.
For `COCCn1c(Cc2c(F)cc(-c3cccc4c3OC3(c5ccc(Cl)cc5)CCC(=O)N43)cc2F)nc2ccc(C(=O)O)cc21` (stereo not drawn) [Example 17, 2-(4-(3a-(4-chlorophenyl)-1-oxo-1,2,3,3a-tetrahydrobenzo[d]pyrrolo[2,1-b]oxazol-5-yl)-2,6-difluorobenzyl)-1-(2-methoxyethyl)-1H-benzo[d]imidazole-6-carboxylic acid] the same measures were 10000 nM and 7.33 mL/min/kg.
In the case of `CC1(c2ccc(Cl)cc2F)Oc2cccc(-c3cc(F)c(Cc4nc5ccc(C(=O)O)cc5n4C[C@@H]4CCO4)c(C#N)c3)c2O1` (stereo partly drawn) [Example 18, 2-(4-(2-(4-chloro-2-fluorophenyl)-2-methylbenzo[d][1, 3]dioxol-4-yl)-2-cyano-6-fluorobenzyl)-1-(((S)-oxetan-2-yl)methyl)-1H-benzo[d]imidazole-6-carboxylic acid], the EC50 in data set [1] came to 0.14 nM. Further, the “Predicted Hepatic Clearance (Pred. Cl.)” value in data set [2] was 8 mL/min/kg.
For `CC1(c2ccc(Cl)cn2)Oc2cccc(-c3ccn(Cc4nc5ccc(C(=O)O)cc5n4C[C@@H]4CCO4)c(=O)c3)c2O1` (stereo partly drawn) [Example 26, 2-((4-(2-(5-chloropyridin-2-yl)-2-methylbenzo[d][1, 3]dioxol-4-yl)-2-oxopyridin-1(2H)-yl)methyl)-1-(((S)-oxetan-2-yl)methyl)-1H-benzo[d]imidazole-6-carboxylic acid] the same measures were 37 nM and below 1.83 mL/min/kg.
As for `CC1(c2ccc(Cl)cn2)Oc2cccc(-c3cnc(Cc4nc5ccc(C(=O)O)cc5n4C[C@@H]4CCO4)c(F)c3)c2O1` (stereo partly drawn) [Example 14, 2-((5-(2-(5-chloropyridin-2-yl)-2-methylbenzo[d][1, 3]dioxol-4-yl)-3-fluoropyridin-2-yl)methyl)-1-(((S)-oxetan-2-yl)methyl)-1H-benzo[d]imidazole-6-carboxylic acid], the EC50 in data set [1] was determined as 4.5 nM. Further, in data set [2], the “Predicted Hepatic Clearance (Pred. Cl.)” value is 2.5 mL/min/kg.
As for `CC1(c2ccc(Cl)cn2)Oc2cccc(-c3cc(F)c(Cc4nc5ccc(C(=O)O)cc5n4C[C@@H]4CCO4)c(F)c3)c2O1` (stereo partly drawn) [Example 27, 2-(4-(2-(5-chloropyridin-2-yl)-2-methylbenzo[d][1, 3]dioxol-4-yl)-2,6-difluorobenzyl)-1-(((S)-oxetan-2-yl)methyl)-1H-benzo[d]imidazole-6-carboxylic acid], the 50% effective concentration (EC50) in data set [1] was 0.53 nM. Moreover, the “Predicted Hepatic Clearance (Pred. Cl.)” value in data set [2] is 2.33 mL/min/kg.
In the case of `CC1(c2ccc(C#N)cc2F)Oc2cccc(-c3cc(F)c(Cc4nc5ccc(C(=O)O)cc5n4C[C@@H]4CCO4)c(F)c3)c2O1` (stereo partly drawn) [Example 91, 2-(4-(2-(4-cyano-2-fluorophenyl)-2-methylbenzo[d][1, 3]dioxol-4-yl)-2,6-difluorobenzyl)-1-(((S)-oxetan-2-yl)methyl)-1H-benzo[d]imidazole-6-carboxylic acid], in data set [1], the half-maximal effective concentration (EC50) amounted to 0.69 nM. Also, the “Predicted Hepatic Clearance (Pred. Cl.)” value in data set [2] is 3.83 mL/min/kg.
For `CC1(c2ccc(Cl)cn2)Oc2cccc(-c3cc(F)c(Cc4nc5ccc(C(=O)O)cc5n4C[C@@H]4CCO4)cc3F)c2O1` (single isomer, unassigned) [Example 45] the same measures were 0.19 nM and 5 mL/min/kg.
As for `COCCn1c(Cc2c(F)cc(-c3cccc4c3OC3(CCCc5cc(Cl)ccc53)O4)cc2F)nc2ccc(C(=O)O)cc21` (stereo not drawn) [Example 56, 2-(4-(6′-chloro-3′,4′-dihydro-2′H-spiro[benzo[d][1,3]dioxole-2,1′-naphthalen]-4-yl)-2,6-difluorobenzyl)-1-(2-methoxyethyl)-1H-benzo[d]imidazole-6-carboxylic acid], the EC50 in data set [1] was 3750 nM. Further, the “Predicted Hepatic Clearance (Pred. Cl.)” value in data set [2] was 5.83 mL/min/kg.
For `CC1(c2ccc(Cl)cc2F)Oc2cccc(-c3cc(F)c(Cc4nc5ccc(C(=O)O)cc5n4C[C@@H]4CCO4)cc3F)c2O1` (single isomer, unassigned) [Example 44] the same measures were 0.033 nM and 4.83 mL/min/kg.
For `COCCn1c(Cc2ccc(-c3cccc4c3OC(C)(c3ccc(Cl)cc3F)O4)n(C)c2=O)nc2ccc(C(=O)O)cc21` (stereo not drawn) [Example 87, 2-((6-(2-(4-chloro-2-fluorophenyl)-2-methylbenzo[d][1, 3]dioxol-4-yl)-1-methyl-2-oxo-1,2-dihydropyridin-3-yl)methyl)-1-(2-methoxyethyl)-1H-benzo[d]imidazole-6-carboxylic acid] the same measures were 1150 nM and 9 mL/min/kg.

Usually EC50 stands for the concentration that produces a half-maximal response.

These data come from patent US20250099431A1, “GLP-1R MODULATING COMPOUNDS” (priority 2020, published 2025).
